These results are taken from patent US8592172B2, “Bioluminescent assays using cyanobenzothiazole compounds” (Promega Corporation, priority 2010, dated 2013).

One data set has as its system UGT isozymes. The following applies: UGT isozymes currently reported in the literature; cited from earlier work.
The target of the next data set is T1, GST M1-1 (Homo sapiens, UniProt P09488).
T1 sequence (P09488 2-218 limits assumed): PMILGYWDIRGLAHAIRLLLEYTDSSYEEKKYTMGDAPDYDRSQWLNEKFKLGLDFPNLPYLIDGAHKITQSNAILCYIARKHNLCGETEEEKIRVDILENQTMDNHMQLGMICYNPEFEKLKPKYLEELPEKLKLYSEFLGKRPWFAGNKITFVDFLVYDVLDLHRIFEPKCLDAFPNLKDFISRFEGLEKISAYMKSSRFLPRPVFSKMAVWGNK
Put plainly: Utilization of benzothiazole substrate by GST M1-1. It counts as biochemical. The note with it: 55 minutes at room temperature. The method, then: (§1) Compound 934-37 was dissolved in DMSO to produce a solution approximately 1 mg/mL. This solution was diluted 1:100 (v/v) into 50 mM HEPES buffer pH 7.5 to produce a substrate solution (approximately 10 μg/ml). Twenty μL of this solution was placed in 10 wells of a 96 well, white luminometer plate (Promega part Z3291), 20 μL of a 1:3.1 dilution of the substrate (approximately 3.2 μg/ml) was placed into another 10 wells in the luminometer plate.
(§2) D-Cysteine, 4 mg (Sigma Chemical Corp.; C8005-1g, 017K1034) was dissolved into 1 mL of 50 mM HEPES buffer pH 7.5, then 4 μL added to 4 of the wells containing the substrate solution and 4 of the wells with diluted substrate solution to convert compound 934-37 to the corresponding luciferin derivative. The structures of these compounds are shown below.
A sample of GST M1-1 (1.2 mg/mL) and 100 μL of 100 mM glutathione was diluted into 5 mL of 50 mM HEPES pH 7.5, then 25 μL added to: two of the wells with unconverted, concentrated compound 934-37; 2 wells with concentrated and converted compound 934-37; and two of the wells with unconverted, diluted compound 934-37 and 2 of the wells with converted, diluted compound 934-37.
(§3) Glutathione (100 μL of 100 mM glutathione) had been diluted to 5 mL with 50 mM HEPES buffer pH 7.5, then 25 μL added to the remaining wells of converted and unconverted compound 934-37 in concentrated and diluted solution.
(§4) After 55 minutes at room temperature, 4 μL of the D-cysteine solution above was added to all wells that had not received cysteine before, then 50 μL of P450-Glo LDR was added. The plate was then placed into a GloMax luminometer (Promega Corp.), and the bioluminescence measured after 15 minutes of incubation. The values obtained were averaged, and the average value of the bioluminescence produced from the wells with no enzyme were then subtracted from the average of the bioluminescence produced in the wells with enzyme.

The target of data set [1] is T2, glutathione S-transferase isoenzyme A1-1 (GST A1-1) (Homo sapiens, UniProt P08263).
T2 sequence (P08263 1-222): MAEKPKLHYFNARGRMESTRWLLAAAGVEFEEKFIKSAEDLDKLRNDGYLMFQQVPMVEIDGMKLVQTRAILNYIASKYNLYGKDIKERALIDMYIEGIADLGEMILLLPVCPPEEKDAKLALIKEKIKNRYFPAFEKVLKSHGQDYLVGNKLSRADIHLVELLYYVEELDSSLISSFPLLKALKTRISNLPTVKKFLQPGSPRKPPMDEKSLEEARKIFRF
Put plainly: Utilization of benzothiazole substrate by GST A1-1. Format: biochemical. The note with it: 55 minutes at room temperature. The method, then:
as §1, §2
A sample of glutathione S-transferase isoenzyme A1-1 (GST A1-1) (1.2 mg/mL) and 100 μL of 100 mM glutathione in water was diluted into 5 mL of 50 mM HEPES pH 7.5, then 25 μL added to the plate as follows: 2 wells with unconverted, concentrated compound 934-37; 2 wells with concentrated and converted compound 934-37; 2 wells with unconverted, diluted compound 934-37; and 2 of the wells with converted, diluted compound 934-37.
as §3, §4

The subject of data set [2] is CYP450 1A2 activity in human liver microsomes. Put plainly: Human liver microsome assay with compound 3019. The note with it: 1 μg HLM, 3 μM compound 3019, 10 minutes at 37° C. The method, then:
Equal volumes of P450-Glo LDR with 6.6 mM D-Cysteine was added into the CYP450 reactions.
(In general: Liver microsomes are a subcellular fraction often used to study metabolism.)

The mark [3] stands for this setting: concentrated substrate (approximately 10 μg/ml).
[4] abbreviates: diluted substrate (approximately 3.2 μg/ml).

As for `C=C[C@H]1C[N@@]2CC[C@H]1C[C@@H]2[C@@H](O)c1ccnc2ccc(OC)cc12` [Quinidine], in the data set with UGT isozymes, the “Isozymes Modulated” value is 2B7 and 2B15, others to a lesser extent.
In the case of `O=c1ccc2ccc(O)cc2o1` [Umbelliferne], in the data set on UGT isozymes, the “Isozymes Modulated” value is recorded as “Substrate of most isozymes”.
`Cc1cc(S(=O)(=O)Oc2ccc3nc(C4=N[C@@H](C(=O)O)CS4)sc3c2)ccc1[N+](=O)[O-]` [converted compound 934-37]: the “bioluminescence with GST M1-1 minus no enzyme” value at GST M1-1 (setting [3]) is listed as 315,759 RLU; on GST M1-1 (setting [4]), 213,920 RLU. The “bioluminescence with GST A1-1 minus no enzyme” value in data set [1] (setting [3]) was 6,410 RLU; in data set [1] (setting [4]), 6,462 RLU.
As for `O=c1cc(-c2ccccc2)oc2c1ccc1ccccc12` [α-naphthoflavone, reference compound], in data set [2], the “inhibition of compound 3019 activity in human liver microsomes” value was “sensitive to inhibition”.
